According to paper PMC7587356, “High-Throughput Screening for Inhibitors of the SARS-CoV-2 Protease Using a FRET-Biosensor” (Molecules, 2020):
Counter-ions that a name gives are not always drawn. Like-named read-outs stand apart in the source and are kept apart here.

Target: SARS-CoV-2 3CLpro (Severe acute respiratory syndrome coronavirus 2, UniProt P0DTD1)
Experiment: biochemical
Format: biochemical
Set-up: Replicate_1 / Replicate_2 / mean / mean (LOPAC_screen_w_protease): unit not given here
Details: for inhibition at 5 µM: 4 h
[1] = LOPAC1280 primary screen with protease, 5 µM compound, replicate 1, read-out: Replicate_1 (LOPAC_screen_w_protease)
[2] = LOPAC1280 primary screen with protease, 5 µM compound, replicate 2, read-out: Replicate_2 (LOPAC_screen_w_protease)
[3] = LOPAC1280 primary screen with protease, 5 µM compound, mean of the two replicates
[4] = sheet LOPAC_screen_w_protease, primary screen of LOPAC1280 at 5 µM with protease, mean of the two replicates
[5] = sheet LOPAC_screen_w_protease, primary screen of LOPAC1280 at 5 µM with protease, replicate 1
[6] = sheet LOPAC_screen_w_protease, primary screen of LOPAC1280 at 5 µM with protease, replicate 2
[7] = sheet LOPAC_screen_w_protease, LOPAC1280 primary screen with protease, 5 µM compound, mean of the two replicates
[8] = sheet LOPAC_screen_w_protease, LOPAC1280 primary screen with protease, 5 µM compound, replicate 1
[9] = sheet LOPAC_screen_w_protease, LOPAC1280 primary screen with protease, 5 µM compound, replicate 2

CCCn1c(C)c(C(=O)c2cccc3ccccc23)c2ccccc21 [JWH-015]
mean (LOPAC_screen_w_protease) (LOPAC1280 primary screen with protease, 5 µM compound, mean of two replicates): 1.386
Replicate_1 (LOPAC_screen_w_protease) (LOPAC1280 primary screen with protease, 5 µM compound, replicate 1): 1.748
Replicate_2 (LOPAC_screen_w_protease) (LOPAC1280 primary screen with protease, 5 µM compound, replicate 2): 1.024

CC(C)NCC(O)COc1cccc2ccccc12.Cl (racemic) [(±)-Propranolol hydrochloride]
Replicate_1: 2.83
Replicate_2: 6.763
mean: 4.797

NC(=O)NO [Hydroxyurea]
mean (sheet LOPAC_screen_w_protease, primary screen with protease, compound at 5 µM, mean of two replicates): 2.8429
Replicate_1 (sheet LOPAC_screen_w_protease, primary screen with protease, compound at 5 µM, replicate 1): 4.9936
Replicate_2 (sheet LOPAC_screen_w_protease, primary screen with protease, compound at 5 µM, replicate 2): 0.6922

C[C@@H]1O[C@@H]1P(=O)(O)O [Phosphomycin disodium]
inhibition at 5 µM (sheet LOPAC_screen_w_protease, primary screen with protease, 5 µM, mean of two replicates, read-out: mean): -0.258%
inhibition at 5 µM (sheet LOPAC_screen_w_protease, primary screen with protease, 5 µM, replicate 1, read-out: Replicate_1): -0.0304%
inhibition at 5 µM (sheet LOPAC_screen_w_protease, primary screen with protease, 5 µM, replicate 2, read-out: Replicate_2): -0.485%

O=C(O)C1=CC(=C(c2ccc(O)c(C(=O)O)c2)c2ccc(O)c(C(=O)O)c2)C=CC1=O [Aurintricarboxylic acid, reference compound]
inhibition at 5 µM (read-out: Replicate_1 (LOPAC screen with protease)): 31.5%
inhibition at 5 µM (read-out: Replicate_2 (LOPAC screen with protease)): 31.9%
inhibition at 5 µM (read-out: mean (LOPAC screen with protease)): 31.7%

CC(N/C(=N\C#N)Nc1ccncc1)C(C)(C)C (stereo not drawn) [Pinacidil]
inhibition at 5 µM (sheet LOPAC_screen_w_protease, LOPAC1280 at 5 µM, mean of two replicates, read-out: mean): 1.05%
inhibition at 5 µM (sheet LOPAC_screen_w_protease, LOPAC1280 at 5 µM, replicate 1, read-out: Replicate_1): 2.49%
inhibition at 5 µM (sheet LOPAC_screen_w_protease, LOPAC1280 at 5 µM, replicate 2, read-out: Replicate_2): -0.383%

CCC1(C)CC(=O)NC1=O (stereo not drawn) [Ethosuximide]
inhibition at 5 µM [1]: 4.21%
inhibition at 5 µM [2]: -0.21%
mean (LOPAC_screen_w_protease) [3]: 1.998

Cc1ccc(Cl)c(Nc2ccccc2C(=O)O)c1Cl [Meclofenamic acid sodium]
inhibition at 5 µM (read-out: Replicate_1): 1.45%
inhibition at 5 µM (read-out: Replicate_2): 5.52%
inhibition at 5 µM (read-out: mean): 3.48%

O=c1nc2[nH]c3ccccc3nc-2c(=O)[nH]1 [Alloxazine]
inhibition at 5 µM (sheet LOPAC_screen_w_protease, LOPAC1280 primary screen with protease, 5 µM compound, mean of the two replicates, read-out: mean): 4.73%
inhibition at 5 µM (sheet LOPAC_screen_w_protease, LOPAC1280 primary screen with protease, 5 µM compound, replicate 1, read-out: Replicate_1): 4.91%
inhibition at 5 µM (sheet LOPAC_screen_w_protease, LOPAC1280 primary screen with protease, 5 µM compound, replicate 2, read-out: Replicate_2): 4.55%

N#C/C(=C\c1ccc(O)c(O)c1)C(=O)N1CCc2ccccc21 [Tyrphostin AG 528]
mean [4]: 3.92
Replicate_1 [5]: 3.707
Replicate_2 [6]: 4.133

NCCCCCC(=O)O [6-Aminohexanoic acid]
inhibition at 5 µM [1]: 2.45%
inhibition at 5 µM [2]: 1.78%
mean (LOPAC_screen_w_protease) [3]: 2.116

O=C(O)C1=CCCNC1 [Guvacine hydrochloride]
inhibition at 5 µM (sheet LOPAC_screen_w_protease, primary screen with protease, mean of two replicates, read-out: mean): 2.3%
inhibition at 5 µM (sheet LOPAC_screen_w_protease, primary screen with protease, replicate 1, read-out: Replicate_1): 4.35%
inhibition at 5 µM (sheet LOPAC_screen_w_protease, primary screen with protease, replicate 2, read-out: Replicate_2): 0.255%

O=[N+]([O-])c1ccc(O[C@@H]2O[C@H](CO)[C@@H](O)[C@H](O)[C@H]2F)c([N+](=O)[O-])c1
mean (sheet LOPAC_screen_w_protease, LOPAC1280 primary screen at 5 µM, with protease, mean of the two replicates): 0.5921
Replicate_1 (sheet LOPAC_screen_w_protease, LOPAC1280 primary screen at 5 µM, with protease, replicate 1): 1.883
Replicate_2 (sheet LOPAC_screen_w_protease, LOPAC1280 primary screen at 5 µM, with protease, replicate 2): -0.6983

CCCN(CC1CC1)c1nc(C)nc(Nc2c(Cl)cc(Cl)cc2Cl)c1Cl [NBI 27914]
mean (sheet LOPAC_screen_w_protease, primary screen with protease, mean of two replicates): 2.264
Replicate_1 (sheet LOPAC_screen_w_protease, primary screen with protease, replicate 1): 4.203
Replicate_2 (sheet LOPAC_screen_w_protease, primary screen with protease, replicate 2): 0.3255

CCN(CCCl)Cc1ccccc1Br.Cl [DSP-4 hydrochloride]
mean [7]: 6.32
Replicate_1 [8]: 6.498
Replicate_2 [9]: 6.142

Cl.Cl.Cl.Ic1ccc(N2CCN(Cc3c[nH]c4ncccc34)CC2)cc1 [L-750,667 trihydrochloride]
mean [7]: 4.601
Replicate_1 [8]: 3.085
Replicate_2 [9]: 6.117

Nc1ccc(CCNc2ncnc3c2ncn3[C@@H]2O[C@H](CO)[C@@H](O)[C@H]2O)cc1 [N6-2-(4-Aminophenyl)ethyladenosine]
mean [4]: 3.204
Replicate_1 [5]: 3.6817
Replicate_2 [6]: 2.726

CNC[C@H](O)c1ccc(O)c(O)c1 [(-)-Epinephrine bitartrate]
inhibition at 5 µM (read-out: Replicate_1): 5.37%
inhibition at 5 µM (read-out: Replicate_2): 0.847%
inhibition at 5 µM (read-out: mean): 3.11%
